In patent US8288365B2, “Phenazopyridine compounds” (Pinnacle Pharmaceuticals, Inc., priority 2008, dated 2012):
≈ marks a conversion by molar mass, not a printed value. Where two headings read alike, the source gives them in different places. Values belong to the compound of their own block, whether it stands above or below them.

What was measured:
[1] = Solubility of PAP prodrugs in 0.1N HCl; assay type: physicochemical; conditions: for solubility: simulated gastric fluid
[2] = Pharmacokinetics of PAP and intact Gly-PAP in male rats after oral gavage; assay type: in vivo
Description: Pharmacokinetics for PAP and Gly-PAP (intact prodrug) were assessed in male rats following administration by oral gavage of mg/kg doses. Rats were fasted overnight prior to dosing. Blood samples were withdrawn at 0.25, 0.5, 1, 2, 4, 6, and 24 hours. The whole blood was centrifuged immediately, and supernatant (plasma) was collected. The plasma samples were assayed for PAP and Gly-PAP by LC-MS-MS.

[3] = test system: dogs; assay: Emesis in dogs after oral TID dosing; assay type: in vivo; conditions: dogs (1 male/1 female), oral gavage TID, 24.8 mg/kg phenazopyridine base equivalent per dose
Description: Dogs (1 male/1 female) were dosed by oral gavage 3 times (TID), once every 8 hours, with 40 mg/kg Gly-PAP or 29 mg/kg phenazopyridine HCl (doses contained an equivalent amount of 24.8 mg/kg phenazopyridine base). […] Results showing reduction of the GI side effect of emesis are illustrated in FIG. 18.

[4] = Pharmacokinetics of PAP and intact Gly-PAP in dogs (plasma and urine) after oral gavage; assay type: in vivo
Description: Pharmacokinetics for PAP and Gly-PAP (intact prodrug) were assessed in dogs following administration by oral gavage of mg/kg doses. Blood (approximately 2 mL) was collected from a jugular vein into tubes containing lithium heparin anticoagulant predose and at 0.083, 0.25, 0.5, 1, 2, 4, 8, 12, and 24 hours postdose. Urine was collected into plastic containers surrounded by wet ice predose (−18 to 0) and 0 to 24 hours postdose. The volume of each sample was recorded. Plasma and urine samples were assayed for PAP and Gly-PAP by LC-MS-MS.

[5] = Oral bioavailability of PAP prodrugs in rats (plasma PAP by LC-MS-MS); assay type: in vivo
Description: The oral bioavailability of PAP (phenazopyridine) prodrugs was evaluated in healthy rats. All the PAP amide (amino acid derivatives) bases were dissolved in 0.1N HCl (the same result can be obtained with a lower molarity), while the carbamates were dissolved in PEG-400 due to the very poor aqueous solubility of the PAP-carbamates. In general, all of the amino acid amide derivatives of PAP had higher water solubility than those of the PAP-carbamates. In another PK study, PAP.HCL salt, Gly-PAP.HCl salt and Gly-PAP.mesylate salt were dissolved in water, affording a clear solution in each case prior to oral administration.
(§1) The rats were fasted overnight prior to dosing. Appropriate amount of each compound was administered via gastric gavages, and at predetermined time (1, 2, 4, 6, and 24 h) blood samples were withdrawn from the rats. The whole blood was centrifuged immediately, and supernatant (plasma) was collected. The plasma samples were assayed for PAP using LC-MS-MS.

[6] = test system: rabbits; conditions: 39 mg/kg/day; cited from earlier work
[7] = test system: bacteria; conditions: cited from earlier work
[8] = cited from earlier work
[9] = test system: mammalian cells; conditions: cited from earlier work
[10] = test system: rats; conditions: doses up to 50 mg/kg/day or 110 mg/kg/day; cited from earlier work
[11] = test system: mice; conditions: i.p.; cited from earlier work
[12] = test system: rats; conditions: cited from earlier work
[13] = PAP pharmacokinetics in rats after oral Gly-PAP salt forms; assay type: in vivo; conditions: PAP in rat plasma, 2.5 mg/kg PAP base equivalent (2.8 for free base)
Description: The oral bioavailability of PAP (phenazopyridine) prodrugs was evaluated in healthy rats.
as §1
The pharmacokinetics of various salts of Gly-PAP were compared following oral administration to rats.

[14] = test system: rats; conditions: long term (2 years); cited from earlier work
[15] = test system: female mice; conditions: cited from earlier work

Compound: C[C@H](N)C(=O)Nc1ccc(/N=N/c2ccccc2)c(N)n1 [Alanyl-PAP, Alanyl-Phenazopyridine]
solubility [1]: 2000 µg/mL (≈ 7030 µM)

Compound: Nc1nc(NC(=O)OCc2ccccc2)ccc1/N=N/c1ccccc1 [Benzylcarbamyl-PAP, Benzylcarbamyl-Phenazopyridine]
solubility [1]: < 100 µg/mL

Compound: CCOC(=O)Nc1ccc(/N=N/c2ccccc2)c(N)n1 [Ethylcarbamyl-PAP, Ethylcarbamyl-Phenazopyridine]
solubility [1]: < 100 µg/mL

Compound: NCC(=O)Nc1ccc(/N=N/c2ccccc2)c(N)n1 [Gly-PAP, Glycyl-Phenazopyridine (6-N-Glycylphenazopyridine)]
AUC of phenazopyridine from 0.9 mg/kg Gly-PAP versus 2.8 mg/kg phenazopyridine HCl ([2]; 0.6 versus 2.5 mg/kg phenazopyridine base): approximately equal AUC
Plasma levels of Gly-PAP relative to those for phenazopyridine from Gly-PAP ([2]; Gly-PAP 4.0 mg/kg): < 5%
solubility [1]: > 2000 µg/mL
Observations of vomitus [3]: single observation of vomitus
Amount of phenazopyridine delivered to the urine ([4]; 8.1 mg/kg Gly-PAP versus equivalent phenazopyridine HCl, urine 0 to 24 hours): a greater amount of phenazopyridine was delivered to the urine
Exposure (AUC0-24) to Gly-PAP relative to that for phenazopyridine ([4]; Gly-PAP 8.1 mg/kg): less than 10%
Plasma Tmax for phenazopyridine (comparison) ([4]; Gly-PAP compared to phenazopyridine HCl): increased

Compound: Nc1nc(NC(=O)[C@@H](N)Cc2c[nH]cn2)ccc1/N=N/c1ccccc1 [Histidinyl-PAP, Histidinyl-Phenazopyridine]
solubility [1]: > 10000 µg/mL

Compound: Nc1ccc(/N=N/c2ccccc2)c(N)n1 [Phenazopyridine]
Effects on fertility or embryo-fetal development [6]: no effects on fertility or embryo-fetal development
Mutagenicity [7]: mutagenic
Excreted unchanged in urine ([8]; oral): up to 65%
Single dose cleared within 24 hours ([8]; within 24 hours): approximately 90%
Mutagenicity and clastogenicity [9]: mutagenic and clastogenic
Effects on fertility or embryo-fetal development [10]: no effects on fertility or embryo-fetal development
Acute toxicity LD50 [11]: 180 mg/kg
Acute toxicity LD50 ([12]; i.p.): 200 mg/kg
Acute toxicity LD50 ([12]; oral): 472 mg/kg

Compound: phenazopyridine hydrochloride [PAP•HCl]
Solubility in 0.1N HCl [1]: 500 µg/mL
Tmax [13]: 15 min
AUC0-6 ([13]; SD printed in the row below): 105 ng·h/mL
Cmax ([13]; water vehicle (0.1N HCl for free base)): 58 ng/mL
Observations of vomitus [3]: four observations of vomitus
Plasma bioavailability of phenazopyridine ([4]; phenazopyridine HCl versus equivalent Gly-PAP): greater plasma bioavailability
Tumour induction on long term administration [14]: induced adenomas and adenocarcinomas in the large intestine
Tmax ([5]; fasted rats, single oral gavage): <60 min
AUC0-24 ([5]; fasted rats, single oral gavage, 0-24 hr): 182 ± 12 ng·h/mL
Tumour induction on lifetime administration [15]: caused hepatocellular adenomas and carcinomas

More lines, now with the values ahead:

solubility [1]: < 100 µg/mL
Tmax ([5]; rats, oral): longer
Compound: CC(C)COC(=O)Nc1ccc(/N=N/c2ccccc2)c(N)n1 [Isobutylcarbamyl-PAP, Isobutylcarbamyl-Phenazopyridine]

solubility [1]: > 2500 µg/mL
Compound: NCCCC[C@H](N)C(=O)Nc1ccc(/N=N/c2ccccc2)c(N)n1 [Lysyl-PAP, Lysyl-Phenazopyridine]

solubility [1]: 1000 µg/mL (≈ 2900 µM)
Compound: CSCC[C@H](N)C(=O)Nc1ccc(/N=N/c2ccccc2)c(N)n1 [Methionyl-PAP, Methionyl-Phenazopyridine]

solubility [1]: 500 µg/mL (≈ 1250 µM)
Tmax ([5]; rats, oral): longer
Compound: Nc1nc(NC(=O)[C@@H](N)Cc2c[nH]c3ccccc23)ccc1/N=N/c1ccccc1 [Tryptophanyl-PAP, Tryptophanyl-Phenazopyridine]

solubility [1]: > 2500 µg/mL
Compound: CC(C)[C@H](N)C(=O)Nc1ccc(/N=N/c2ccccc2)c(N)n1 [Valyl-PAP, Valyl-Phenazopyridine]
